Source: patent publication US8193191B2, “Urotensin II receptor antagonists” (Janssen Pharmaceutica N.V., priority 2006, dated 2012)
pIC50: −log10 of the molar value. Like-named read-outs stand apart in the source and are kept apart here.

Target: T1, rat GPR14 (U-II receptor) (Rattus norvegicus, UniProt P49684)
T1 construct: expressed in transfected cells
T1 sequence (P49684 1-386): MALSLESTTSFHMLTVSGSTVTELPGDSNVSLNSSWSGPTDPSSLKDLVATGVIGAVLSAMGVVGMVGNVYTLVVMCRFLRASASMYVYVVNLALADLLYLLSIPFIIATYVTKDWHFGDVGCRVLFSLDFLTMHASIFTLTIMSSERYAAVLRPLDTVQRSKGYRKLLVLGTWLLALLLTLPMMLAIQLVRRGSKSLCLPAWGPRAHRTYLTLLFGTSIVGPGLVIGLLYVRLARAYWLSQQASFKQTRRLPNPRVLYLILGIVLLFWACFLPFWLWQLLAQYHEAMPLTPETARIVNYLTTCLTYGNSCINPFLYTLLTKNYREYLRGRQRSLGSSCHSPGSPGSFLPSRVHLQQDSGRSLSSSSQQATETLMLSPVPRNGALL
Experiment: Rat UII Calcium Mobilization FLIPR Assay
Format: cell-based
Settings: for inhibition at 10 µM / inhibition at 50 µM: CHO, 5 min, agonist-induced Ca2+ mobilization (FLIPR), CHO cells with rat UII receptor; for inhibition at 10 µM: 10 μM compound, read-out: % I @ 10; for inhibition at 50 µM: 50 μM compound, read-out: % I @ 50
Source text: To derive these cells, the complete coding sequence of rat U-II (Genbank Accession No. U32673) was amplified by nested PCR from rat heart marathon-Ready cDNA. […] The PCR products were cloned into pcDNA3 (Invitrogen) digested with EcoR I and Xba I. Clones containing rat U-II receptor were verified by complete sequencing of the U-II receptor insert to ensure a lack of PCR-introduced errors. The constructed vector was transfected into CHO cells by using lipofectamine (GIBCO BRL). CHO cells with high expression of rat U-II receptor were selected and established as stable cell lines by using G418. CHO cells were seeded at 25,000 cells per well into 96-well, black-wall, clear-bottom microtiter plates 24 h before assay. Cells in culture media (DMEM/F12 containing 15 mM HEPES, L-glutamine, pyridoxine hydrochloride; 10% fetal bovine serum; 1 mg/mL G418 sulfate; antibiotic-antimycotic; pH 7.4) were loaded with proprietary dye, from the FLIPR Calcium Assay Kit (Molecular Devices), prepared in assay buffer (Hanks Balanced Salts Solution, 20 mM HEPES, 0.1% BSA, 2.5 mM probenecid, pH 7.4), and incubated for 1 h at 37° C. Calcium mobilization determinations were performed at room temperature (23° C.).

[1] = Inhibition of Acetyl-cyclic[Cys-Phe-Trp-Lys-(2-Nal)-Cys]-NH2 induced Ca2+ mobilization (FLIPR) in CHO cells transfected with rat UII receptor, read-out: IC50
[2] = average value for the compound tested, read-out: Rat UII FLIPR Average IC50

SMILES | inhibition at 10 µM | inhibition at 50 µM | pIC50 [1] | pIC50 [2]
COc1ccc(CN2C(=O)c3cccc(N4C[C@@H](C)N(Cc5ccccc5)[C@@H](C)C4)c3C2=O)cc1OC [Cpd 42, (3R,5S)-4-(4-benzyl-3,5-dimethyl-piperazin-1-yl)-2-(3,4-dimethoxy-benzyl)-isoindole-1,3-dione] | 55% | 78% | 5.00 | 
COc1ccc(CN2C(=O)c3cccc(N4CCN(Cc5cc(F)ccc5F)CC4)c3C2=O)cc1OC [Cpd 29, 4-[4-(2,5-difluoro-benzyl)-piperazin-1-yl]-2-(3,4-dimethoxy-benzyl)-isoindole-1,3-dione] | 77% | 95% | 5.36 | 
COc1ccc(CN2C(=O)c3cccc(N4CCN(C5CCc6ccccc65)CC4)c3C2=O)cc1OC (stereo not drawn) [Cpd 20, 2-(3,4-dimethoxy-benzyl)-4-(4-indan-1-yl-piperazin-1-yl)-isoindole-1,3-dione] | 78% | 15% | 5.82 | 
COc1ccc(CN2C(=O)c3cccc(N4CCN(Cc5cccc(Cl)c5)CC4)c3C2=O)cc1OC [Cpd 44, 4-[4-(3-chloro-benzyl)-piperazin-1-yl]-2-(3,4-dimethoxy-benzyl)-isoindole-1,3-dione] | 42% | 79% | 4.92 | 
C#CC(c1ccccc1)N1CCN(c2cccc3c2C(=O)N(Cc2ccc(OC)c(OC)c2)C3=O)CC1 (stereo not drawn) [Cpd 35, 2-(3,4-dimethoxy-benzyl)-4-[4-(1-phenyl-prop-2-ynyl)-piperazin-1-yl]-isoindole-1,3-dione] | 55% | 65% | 5.20 | 
CCCOc1ccc(CN2C(=O)c3cccc(N4CCN([C@H](C)c5ccccc5)CC4)c3C2=O)cc1OC [Cpd 41, 2-(3-methoxy-4-propoxy-benzyl)-4-[4-(1R)-(1-phenyl-ethyl)-piperazin-1-yl]-isoindole-1,3-dione] | 57% | 69% | 5.01 | 
COc1ccc(CN2C(=O)c3cccc(C4=CC5CCC(C4)N5Cc4ccccc4)c3C2=O)cc1OC (stereo not drawn) [Cpd 50, 4-(8-benzyl-8-aza-bicyclo[3.2.1]oct-2-en-3-yl)-2-(3,4-dimethoxy-benzyl)-isoindole-1,3-dione] | 42% | 77% | 4.77 | 
COc1ccc(CN2C(=O)c3cccc(N4CC5CCC(C4)N5C(C)c4ccccc4)c3C2=O)cc1OC (stereo not drawn) [Cpd 32, 2-(3,4-dimethoxy-benzyl)-4-[8-(1-phenyl-ethyl)-3,8-diaza-bicyclo[3.2.1]oct-3-yl]-isoindole-1,3-dione] | 73% | 93% | 5.31 | 
COc1cc(CN2C(=O)c3cccc(N4CC5CCC(C4)N5Cc4ccccc4)c3C2=O)cc(OC)c1 [Cpd 45, 4-(8-benzyl-3,8-diaza-bicyclo[3.2.1]oct-3-yl)-2-(3,5-dimethoxy-benzyl)-isoindole-1,3-dione] | 55% | 40% | 4.89 | 
COc1ccc([C@H](CC(=O)O)N2C(=O)c3cccc(N4CCN([C@H](C)c5ccccc5)CC4)c3C2=O)cc1OC [Cpd 30, (S)-3-(3,4-dimethoxy-phenyl)-3-{1,3-dioxo-4-[4-(1R)-(1-phenyl-ethyl)-piperazin-1-yl]-1,3-dihydro-isoindol-2-yl}-propionic acid] | 80% | 99% | 5.36 | 
COc1ccc(CCN2C(=O)c3cccc(N4CC5CCC(C4)N5Cc4ccccc4)c3C2=O)cc1OC [Cpd 25, 4-(8-benzyl-3,8-diaza-bicyclo[3.2.1]oct-3-yl)-2-[2-(3,4-dimethoxy-phenyl)-ethyl]-isoindole-1,3-dione] | 90% | 100% | 5.55 | 
COc1ccc(CN2C(=O)c3cccc(N4CCN(Cc5ccccc5C)CC4)c3C2=O)cc1OC [Cpd 33, 2-(3,4-dimethoxy-benzyl)-4-[4-(2-methyl-benzyl)-piperazin-1-yl]-isoindole-1,3-dione] | 60% | 97% | 5.30 | 
COc1ccc(CN2C(=O)c3cccc(N[C@@H]4CCCC[C@H]4NCc4ccccc4)c3C2=O)cc1OC [Cpd 37, 4-(1R,2R)-(2-benzylamino-cyclohexylamino)-2-(3,4-dimethoxy-benzyl)-isoindole-1,3-dione] | 62% | 71% | 5.16 | 
COc1ccc(CN2C(=O)c3cccc(N4CCN(Cc5ccccc5C#N)CC4)c3C2=O)cc1OC [Cpd 38, 2-{4-[2-(3,4-dimethoxy-benzyl)-1,3-dioxo-2,3-dihydro-1H-isoindol-4-yl]-piperazin-1-ylmethyl}-benzonitrile] | 56% | 94% | 5.12 | 

Results, then the molecule that gave them:

inhibition at 10 µM | inhibition at 50 µM | pIC50 [1] | pIC50 [2] | SMILES
 |  |  | 5.66 | COc1ccc([C@@H](CCCNS(=O)(=O)c2sc3ccc(F)cc3c2C)N2C(=O)c3cccc(N4CCN([C@H](C)c5ccccc5)CC4)c3C2=O)cc1OC [Cpd 137, (R)-5-fluoro-3-methyl-benzo[b]thiophene-2-sulfonic acid (4-(3,4-dimethoxy-phenyl)-4-{1,3-dioxo-4-[4-(1R)-(1-phenyl-ethyl)-piperazin-1-yl]-1,3-dihydro-isoindol-2-yl}-butyl)-amide]
12% | 75% | 4.62 |  | Cc1c(CN2C(=O)c3cccc(N4CCN(Cc5ccccc5)CC4)c3C2=O)cnn1C [Cpd 55, 4-(4-benzyl-piperazin-1-yl)-2-(1,5-dimethyl-1H-pyrazol-4-ylmethyl)-isoindole-1,3-dione]
8% | 52% | 4.38 |  | COc1cc(CN2C(=O)c3cccc(N4CCN(CC(C)C)CC4)c3C2=O)cc(OC)c1OC [Cpd 60, 4-(4-isobutyl-piperazin-1-yl)-2-(3,4,5-trimethoxy-benzyl)-isoindole-1,3-dione]
21% | 68% | 4.60 |  | COc1ccc(CN2CCN(c3cccc4c3C(=O)N(Cc3ccc(OC)c(OC)c3)C4=O)CC2)cc1OC [Cpd 56, 2-(3,4-dimethoxy-benzyl)-4-[4-(3,4-dimethoxy-benzyl)-piperazin-1-yl]-isoindole-1,3-dione]
17% | 71% | 4.74 |  | COc1cc(CN2C(=O)c3cccc(N4CCN(C(C)C)CC4)c3C2=O)cc(OC)c1OC [Cpd 52, 4-(4-isopropyl-piperazin-1-yl)-2-(3,4,5-trimethoxy-benzyl)-isoindole-1,3-dione]
 |  |  | 6.82 | COc1ccc(C(CCCNS(=O)(=O)C=Cc2ccccc2)N2C(=O)c3cccc(N4CCN([C@H](C)c5ccccc5)CC4)c3C2=O)cc1OC (stereo partly drawn) [Cpd 111, 2-phenyl-ethenesulfonic acid (4-(3,4-dimethoxy-phenyl)-4-{1,3-dioxo-4-[4-(1R)-(1-phenyl-ethyl)-piperazin-1-yl]-1,3-dihydro-isoindol-2-yl}-butyl)-amide]
 |  |  | 6.24 | COc1ccc(C(CCCNS(=O)(=O)c2ccc(Br)s2)N2C(=O)c3cccc(N4CCN([C@H](C)c5ccccc5)CC4)c3C2=O)cc1OC (stereo partly drawn) [Cpd 100, 5-bromo-thiophene-2-sulfonic acid (4-(3,4-dimethoxy-phenyl)-4-{1,3-dioxo-4-[4-(1R)-(1-phenyl-ethyl)-piperazin-1-yl]-1,3-dihydro-isoindol-2-yl}-butyl)-amide]
